Numbered stars: 1 amine (or outer) side, 2 acyl side, 3 side chain; on linkers, the order of the positions; unused ones are H or OH. Square brackets hold non-standard residues; d marks the D form. Peptide text beside a SMILES is read from it. * marks the point of attachment. X1 = O=C1NC2CSC(CCCCC(=O)*)C2N1; X2 = CC(O)CC(N[*:1])C(=O)[*:2]; Abu = CC[CH](N)C(=O)O
Assays:
[1] = test system: fetal rat cortical neurons; assay: NMDA-induced damage to neurons, MTT cell survival and LDH release; type: cell-based; details: NMDA 250 μmol/L, 60 min; EPO 5 μg/ml, T3 100 μg/ml
Description: Based on the above results, the primary cortical neurons were administered with 250 μmol/L NMDA.
1. Selecting well-grown neurons cultured for 7-14 days, and adding EPO (5 μg/ml), the EPO-derived peptide of the present invention (100 μg/ml) respectively;
2. Adding NMDA to achieve a final concentration of 250 μmol/L, and culturing in an incubator at 37° C. for 60 min;
3. Discarding the culture medium, and measuring the cell survival rate (MTT kit, Beyotime Biotechnology Co., Ltd.) and LDH lactic dehydrogenase release rate (LDH kit, Promega Corporation) of the cells in each group.

[2] = test system: red blood cells; assay: Hematopoietic experiment: red blood cell counts after daily intraperitoneal injection; type: in vivo, C57/BL6 mice; details: for RBC generation (erythrocyte counts): tail vein blood; for red blood cell counts compared with the other groups (Saline, ACN+Milliq): as the number of administrations increases
Description: 18-22 g of male C57/BL6 mice (purchased from Shanghai SIPPR-BK Laboratory Animal Co., Ltd., 50 mice in total and 10 mice for each group) were used. The five groups were injected intraperitoneally with EPO (50 μg/kg), EPO-derived peptide of the present invention (50 μg/kg), EPO-derived peptide of the present invention (250 μg/kg), physiological saline (0.1 m/mouse), and solvent (ACN+Milliq, 0.1 m/mouse) once a day, respectively. On the 3th, 7th, and 13th days, the blood samples were collected from the tail vein and measured by a ProCyte Dx automatic blood cell analyzer to obtain the numbers of red blood cells thereof.

[3] = test system: fetal rat cortical neurons; assay: Oxygen-glucose deprivation (OGD)-induced damage to neurons, MTT cell survival and LDH release; type: cell-based; details: 3 h hypoxia (1% oxygen), then 4 h with EPO 5, 100 μg/ml or T3 5, 50, 100 μg/ml
Description: According to the methods from literatures, the fetal rat cortical neurons were cultured in the serum-free culture medium of Neurobasal® Medium (purchased from the market). After incubation in a 5% CO2 incubator for 7-14 days, the neurons were specifically labeled: microtubule-associated protein-2 (MAP-2) was stained and identified, and the nuclei were labeled with the fluorescent dye of 4, 6-diamidino-2-phenylindole (DAPI).
The fetal rat cortical neurons of primary culture were cultured in a sugar-free DMED culture medium. After being placed in the hypoxic incubator to damage neurons for 3 h, the culture medium were replaced with serum-free culture medium. EPO, the novel EPO-derived peptide (T3) and the culture medium were added to different groups respectively, and the groups were cultured in a 5% CO2 normal oxygen incubator for 4 h. Then the LDH release rate and MTT cell survival rate of each group were measured.
1. Selecting well-grown neurons cultured for 7-14 days, aspirating the old culture medium of neurons, washing 3 times with PBS buffer, and then adding sugar-free DMEM:
2. Placing the culture plates in an anoxic incubator at 37° C., and setting the oxygen concentration therein as 1%.
3. Removing the culture plates after 3 h of hypoxia, aspirating the sugar-free medium, replacing it with the original serum-free maintenance medium, adding EPO (5 μg/ml, 100 μg/ml), the EPO-derived peptide of the present invention (5 μg/ml, 50 μg/ml, 100 μg/ml), and the culture medium respectively, and placing in an 5% CO2 incubator with 95% air at 37° C. for 4 h.
4. After 4 h, measuring the cell survival rate (MTT kit, Beyotime Biotechnology Co., Ltd.) and LDH lactic dehydrogenase release rate (LDH kit, Promega Corporation) of the cells in each group.

[4] = test system: pilocarpine-induced seizures; assay: Pilocarpine-induced epilepsy model: seizure latency; type: in vivo, C57/BL6 mice; details: for seizure latency / seizure latency versus saline and solvent groups: EPO 50 μg/kg; for seizure latency: T3 500 μg/kg i.p. 1 day, 4 h, 2 h before pilocarpine 350 mg/kg; for seizure latency versus saline and solvent groups: T3 500 μg/kg, difference statistically significant
Description: C57/BL6 mice (male, 20-25 g, 24 mice, purchased from Shanghai JieSiJie Laboratory Animal Co., Ltd) were divided into physiological saline group (Saline, 0.2 ml/mouse), solvent group (ACN+Milliq, 0.2 ml/mouse), EPO group (50 μg/kg), novel EPO-derived peptide group (T3, 500 μg/kg), 6 mice each group. The drugs were administered 1 day, 4 h, and 2 h before pilocarpine-induced epilepsy, and the seizure latency and severity of seizures were recorded.
1. Intraperitoneally administering the mice 1 day, 4 h, 2 h prior to the injection of pilocarpine;
2. Intraperitoneally injecting scopolamine (1 mg/kg) 30 min in advance to reduce the peripheral cholinergic response induced by pilocarpine;
3. Intraperitoneally injecting pilocarpine (350 mg/kg), recording the time of administration, time of onset, severity of seizure;
Behavioral grading of epilepsy continuing status using the Racine scale:
Grade I: staring, mouth and facial movements;
Grade II: nodding, single jerks;
Grade III: unilateral/bilateral forelimb clonus
Grade V: loss of posture, jumping repeatedly, falling, tonic clonic seizure.

[5] = Blood-brain barrier penetration experiment: biotin in cerebrospinal fluid; type: in vivo, mouse; details: mice, biotin detected in cerebrospinal fluid
Description: The biotin-labeled novel EPO-derived peptide was injected intraperitoneally. 5-15 μl of mouse cerebrospinal fluid was taken under general anesthesia 1 h after administration. The biotin assay kit was used to detect whether the biotin-labeled novel EPO-derived peptide entered the cerebrospinal fluid across the blood-brain barrier.
1. Anesthetizing the mouse with 4% chloral hydrate;
2. Wiping the nape of the neck with wet gauze, and cutting off the dorsal set to expose the skin; making a sagittal incision in the skin below the occipital bone, and separating the skin from both sides to expand the visual field;
3. Letting the mouse prone, placing the body at an angle of 135° to the head and fixing the head on the stereotactic instrument; bluntly separating the subcutaneous tissue and muscle along the midline under the stereo microscope; at this angle, the dura mater and spinal cord can be clearly seen in the incision below the occipital bone (The main features are a clear white appearance, a cyclical pulsation of the spinal cord blood vessels and an adjacent cerebrospinal fluid area);
4. Setting the heat value as 300 and the pressure value as 330 in the needle puller, pulling the capillary glass tube into a pointed capillary tube, and trimming the tip of the pointed capillary tube with scissors to make the blunt tip have a diameter of 0.5 mm;
5. […]

[6] = test system: mouse model of transient middle cerebral artery occlusion; assay: Mouse model of transient middle cerebral artery occlusion: neurobehavioral scores, cerebral infarction volume; type: in vivo, ICR mice; details: for cerebral infarction volume versus control group / neurobehavioral scores versus control group: EPO 50 μg/kg, T3 500 μg/kg at reperfusion; for Neurobehavioral scores / Cerebral infarction volumes: third day after surgery; for Neurobehavioral scores: 60 min ischemia then reperfusion; for Cerebral infarction volumes: cresyl violet sections
Description: ICR mice (male, 25-30 g, 18 mice, purchased from Shanghai Slac Laboratory Animal Co., Ltd.) were divided into control group (ACN+Millq, 0.2 ml/mouse), EPO group (50 μg/kg), novel EPO-derived peptide group (T3, 500 μg/kg), 6 mice/group. Mice in each group were operated with suture-occluded method in mice to establish middle cerebral artery occlusion model, the mice were anesthetized by intraperitoneal injection of ketamine hydrochloride and fixed on the operating table. After 60 min of ischemia, the sutures were removed to reperfuse, and the solvents (ACN+Milliq), EPO, and T3 were administered separately. Neurobehavioral scores were measured on the third day after surgery, and then the mice were sacrificed to reperfuse and the brains were harvested to make sections stained with cresyl violet. The results were shown in FIG. 7A, FIG. 7B and FIG. 7C.
1. Disinfecting the neck, making an incision at the center of the neck, exposing the left common carotid artery with a microsurgical forceps under a stereo microscope, separating the internal carotid artery, external carotid artery and pterygopalatine artery, ligating the common carotid artery and internal carotid artery; making two knots on the external carotid artery with two filaments, wherein one at the distal part of the external carotid artery is a dead knot, and one at the proximal part of the external carotid artery is a slipknot;
2. Making a small incision on the external carotid artery with venus scissors, having about half the size of the blood vessel;
3. Cutting the external carotid artery, and carefully reversely inserting the suture from the external carotid artery into the bifurcation of the external carotid artery and internal carotid artery, then loosening the knot on the internal carotid artery, inserting the suture into the internal carotid artery until it encounters a slight resistance, that is, the origin of the middle cerebral artery, and putting the mouse back into the cage.
4. Anesthetizing and fixing again after 60 min of cerebral ischemia, and re-exposing the common carotid artery, internal carotid artery and suture parts under a stereo microscope;
5. Loosening the filament ligated to the proximal part of the external carotid artery for fixing the suture with the microsurgical forceps, slowly withdrawing the suture, and ligating the stump of the external carotid artery, loosening the filament ligated to the common carotid artery to achieve reperfusion;
6. Suturing the incision of the neck, disinfecting the area, and putting the mouse back in the cage for observation.

[7] = 50 ug/kg i.p. once a day, 3th day
[8] = 50 ug/kg i.p. once a day, 7th day
[9] = 50 ug/kg i.p. once a day, 13th day

Row | Molecule | LDH release rate versus control group [1] | cell survival rate (MTT) versus control group [1] | RBC generation (erythrocyte counts) [2, 7] | RBC generation (erythrocyte counts) [2, 8] | RBC generation (erythrocyte counts) [2, 9] | red blood cell counts compared with the other groups (Saline, ACN+Milliq) [2] | LDH release rate versus control group [3] | cell survival rate (MTT) versus control group [3] | seizure latency [4] | seizure latency versus saline and solvent groups [4] | cerebral infarction volume versus control group [6] | neurobehavioral scores versus control group [6] | also measured
1 | CCC(NC(=O)C(CC(C)C)NC(=O)CNC(=O)C(CO)NC(=O)C(NC(=O)C(C)NC(=O)C(CC(=O)O)NC(=O)C(NC(=O)C(Cc1cnc[nH]1)NC(=O)C(CC(C)C)NC(=O)C(CCC(N)=O)NC(=O)C(CC(C)C)NC(=O)C1CCCN1C(=O)C(CO)NC(=O)C(CO)NC(=O)C(CC(N)=O)NC(=O)C(NC(=O)C(CC(C)C)NC(=O)C(CC(C)C)NC(=O)C(C)NC(=O)C(CCC(N)=O)NC(=O)CNC(=O)C(CCCNC(=N)N)NC(=O)C(CC(C)C)NC(=O)C(NC(=O)C(C)NC(=O)C(CCC(=O)O)NC(=O)C(CO)NC(=O)CCCCC1SCC2NC(=O)NC21)C(C)C)C(C)C)C(C)C)C(C)C)C(=O)NC(CO)C(=O)NC(CC(C)O)C(=O)NC(C(=O)NC(C(=O)NC(CC(C)C)C(=O)NC(CC(C)C)C(=O)NC(CCCNC(=N)N)C(=O)NC(C)C(=O)NC(CC(C)C)C(=O)O)C(C)O)C(C)O (stereo not drawn) [T3] (X1-SEAVLRGQALLVNSSPLQLHVDAVSGL[Abu]S[X2]TTLLRAL-OH; configuration not given here) | lower than that in the control group | higher than that in the control group | 9.29 ± 0.13 M/μL | 8.75 ± 0.36 M/μL | 6.77 ± 0.18 M/μL | no significant increase | lower than that in the control group | higher than that in the control group | 40.58 ± 3.67 min | longer than those of the physiological saline group and the solvent group | lower than those of the control group | lower than those of the control group | RBC generation (erythrocyte counts) ([2]; 250 ug/kg i.p. once a day, 3th day): 8.16 ± 0.28 M/μL; RBC generation (erythrocyte counts) ([2]; 250 ug/kg i.p. once a day, 7th day): 9.56 ± 0.54 M/μL; RBC generation (erythrocyte counts) ([2]; 250 ug/kg i.p. once a day, 13th day): 6.52 ± 0.12 M/μL; loss of neurons in the hippocampus ([4]; animals with nerve damage (epilepsy model), summary statement): reduce the loss of neurons in the hippocampus; blood-brain barrier penetration [5]: could enter the cerebrospinal fluid across the blood-brain barrier; Neurobehavioral scores ([6]; column head: Ctrl + T3 group): 6.3 ± 0.7; Cerebral infarction volumes ([6]; column head: ctrl + T3 group): 40.54 ± 5.78 mm^3; Cerebral infarction volumes ([6]; column head:): 37.72 ± 9.20 mm^3; Neurobehavioral scores ([6]; column head:): 5.7 ± 0.3
2 | Erythropoietin [EPO] | lower than that in the control group | higher than that in the control group | 9.14 ± 0.56 M/μL | 12.79 ± 0.24 M/μL | 11.15 ± 0.23 M/μL | significantly higher than that of other groups | lower than that in the control group | higher than that in the control group | 41.16 ± 3.52 min | longer than those of the physiological saline group and the solvent group | lower than those of the control group | lower than those of the control group | –
